Results from patent US20170051002A1, “Rebaudioside A Crystal And Its Preparation Method And Use” (Zhucheng Haotian Pharm Co., Ltd., priority 2014, published 2017).

Columns and labels:
[1] = large number of scientific experiments; cited from earlier work
[2] = storage stability at 25° C. RH 60% for 3 months (crystal form, HPLC purity); assay type: physicochemical; settings: after standing for 3 months
Experimental: The maximum solubility of the sample obtained according to the above-mentioned examples is about 30 mg/mL, and the form remains unchanged when stored at 25° C. RH 60% for 3 months from the results of HPLC analysis (purity is detected by high performance liquid chromatography, and the liquid chromatographic column and liquid chromatography used are the same as those specified by JECFA in 2010).
Perparation of sample solution: Precisely 50-100 milligrams of rebaudioside A were weighed and placed in a 50 milliliter volumetric flask, and then a solution of water and acetonitrile in a ratio of 7:3 were added for dissolution to a scale of 50 milliliter. Detection step: 5 μl of a sample solution are injected under the following conditions. Chromatographic Column: A Capcell pak C18 MG II chromatographic column from the Shiseido company or a Luna 5μ C18(2) 100A chromatographic column from the Phenomenex company or a chromatographic column of equivalent specifications (length: 250 millimeters; inner diameter: 4.6 millimeters; packing particle size: 5 μm). Mobile Phase: a mixture of acetonitrile and a sodium phosphate buffer (specification: 10 mmol/L, pH value of 2.6) in a ratio of 32:68. […] Chromatographic Column temperature: detection patterns are recorded for about 30 minutes at 40° C. […]

[3] = dynamic vapor adsorption (DVS) hygroscopicity; assay type: physicochemical; settings: conventional storage environment 40%-80% RH; 25° C.
Experimental: “Dynamic vapor adsorption (DVS)” is an instrument for measuring the hygroscopicity of a sample. Its measurement method is known in the field. For example, an instrument from Surface Measurement Systems, Ltd. may be used to collect data of humidity ranging from 5% to 95% at 25 degrees Celsius. The weight deviation under each humidity is no more than ±0.02% within 10 min. The rebaudioside A Form 7 of the present invention has particular stability, which is conducive to storage. […] In a preferred embodiment, the DVS isotherm of the resulting rebaudioside A crystal form 7 is substantially identical to FIG. 4. DVS: All dynamic vapour adsorption (DVS) experimental data of the present invention are measured by a DVS Intrinsic dynamic vapour sorption instrument from SMS, UK. Measurement conditions: Temperature: 25° C.; Relative humidity range: 5%-95%.

purity change by HPLC compared to the starting material [2]	hygroscopicity in DVS patterns [3]	SMILES	toxicity and side effect [1]
less than 0.5%	–	C=C1C[C@@]23CC[C@H]4[C@@](C)(CCC[C@@]4(C)C(=O)O[C@@H]4O[C@H](CO)[C@@H](O)[C@H](O)[C@H]4O)[C@@H]2CC[C@]1(O[C@@H]1O[C@H](CO)[C@@H](O)[C@H](O[C@@H]2O[C@H](CO)[C@@H](O)[C@H](O)[C@H]2O)[C@H]1O[C@@H]1O[C@H](CO)[C@@H](O)[C@H](O)[C@H]1O)C3 [Rebaudioside A]	without any toxicity and side effect
–	little hygroscopicity	C=C1C[C@@]23CC[C@H]4[C@@](C)(CCC[C@@]4(C)C(=O)O[C@@H]4O[C@H](CO)[C@@H](O)[C@H](O)[C@H]4O)[C@@H]2CC[C@]1(O[C@@H]1O[C@H](CO)[C@@H](O)[C@H](O[C@@H]2O[C@H](CO)[C@@H](O)[C@H](O)[C@H]2O)[C@H]1O[C@@H]1O[C@H](CO)[C@@H](O)[C@H](O)[C@H]1O)C3 [rebaudioside A Form 7, rebaudioside A]	–
